The subject of assay [1] is Diabrotica virgifera virgifera Leconte, 3rd instar western corn rootworm. As to the kind of experiment: Evaluation against 3rd instar western corn rootworm, treated talc/soil jar test, mortality after 5 days. The note with it: mortality rating 0-9 after 5 days in soil. The assay is classed as in vivo. How it is done:
(§1) Test solutions are prepared by dissolving the test compound in a 35% acetone in water mixture to give a concentration of 10,000 ppm. Subsequent dilutions are made with water as needed.
Diabrotica virgifera virgifera Leconte, 3rd instar western corn rootworm
(§2) One cc of fine talc is placed in a 30 mL wide-mouth screw-top glass jar. One mL of the appropriate acetone test solution is pipetted onto the talc so as to provide 1.25 mg, 0.25 mg or 0.025 mg of active ingredient per jar. The jars are set under a gentle air flow until the acetone is evaporated. The dried talc is loosened, 1 cc of millet seed is added to serve as food for the insects and 25 mL of moist soil is added to each jar. The jar is capped and the contents thoroughly mixed mechanically. Following this, ten 3rd instar rootworms are added to each jar and the jars are loosely capped to allow air exchange for the larvae. The treatments are held for 5 days when mortality counts are made. Missing larvae are presumed dead, since they decompose rapidly and can not be found.

In assay [2] the test system is Diabrotica undecimrunctata howardi, 3rd instar southern corn rootworm. As to the kind of experiment: Evaluation against 3rd instar southern corn rootworm, treated talc/soil jar test, mortality after 5 days. The assay is classed as in vivo, Diabrotica undecimpunctata howardi. The settings on record: mortality rating 0-9 after 5 days in soil. How it is done:
as §1
Diabrotica undecimrunctata howardi, 3rd instar southern corn rootworm
as §2

Structures can show the parent of a compound that is named as a salt.

As to `CC(C)C(=O)C(C)C(=O)Nc1ccc(C(F)(F)F)cc1` (stereo not drawn) [Compound 29, α,α,α-Trifluoro-2,4-dimethyl-3-oxo-p-valerotoluidide], in assay [1], the “Western Corn Rootworm (1 ppm) rating” value is reported as 0.0, the “Western Corn Rootworm (10 ppm) rating” value was found to be 0.0 and the “Western Corn Rootworm (50 ppm) rating” value is given as 8.5.

On to `CC(C)CC(C)C(=O)Nc1ccc(C(F)(F)F)c(OC(F)F)c1` (stereo not drawn) [Compound 32, 3-(Difluoromethoxy)-α,α,α-trifluoro-2,4-dimethyl-p-valerotoiuidide], for which, in assay [1], the “Western Corn Rootworm (1 ppm) rating” value turned out to be 0.0, the “Western Corn Rootworm (10 ppm) rating” value is recorded as 4.0 and the “Western Corn Rootworm (50 ppm) rating” value was determined as 4.0.

Turning to `COC(C(C)C)C(C)(C)C(=O)Nc1ccc(C(F)(F)F)cc1` (stereo not drawn) [Compound 16, α,α,α-Trifluoro-3-methoxy-2,2,4-trimethyl-p-valerotoluidide], in assay [1], the “Western Corn Rootworm (1 ppm) rating” value came out at 0.0, the “Western Corn Rootworm (10 ppm) rating” value is reported as 9.0 and the “Western Corn Rootworm (50 ppm) rating” value is given as 9.0.

`CC(C)C(=O)C(C)(C)C(=O)N(C)c1ccc(C(F)(F)F)cc1` [Compound 36, α,α,α-Trifluoro-N,2,2,4-tetramethyl-3-oxo-p-valerotoluidide]: in assay [1], the “Western Corn Rootworm (1 ppm) rating” value amounted to 2.0, the “Western Corn Rootworm (10 ppm) rating” value is on record as 9.0 and the “Western Corn Rootworm (50 ppm) rating” value came out at 9.0.

Regarding `CC(C)C(O)C(C)(C)C(=O)Nc1ccc(C(F)(F)F)cc1` (stereo not drawn) [Compound 4, α,α,α-Trifluoro-3-hydroxy-2,2,4-trimethyl-p-valerotoluidide], in assay [2], the “Southern Corn Rootworm (1 ppm) rating” value came to 0.0, the “Southern Corn Rootworm (10 ppm) rating” value is listed as 0.0 and the “Southern Corn Rootworm (50 ppm) rating” value was determined as 9.0.

Regarding `CC(C)OC(C)(C)C(=O)Nc1ccc(C(F)(F)F)cc1` [Compound 30, α,α,α-Trifluoro-2-isopropoxy-2-methyl-p-propionotoluidide], in assay [1], the “Western Corn Rootworm (1 ppm) rating” value worked out at 0.0, the “Western Corn Rootworm (10 ppm) rating” value is reported as 9.0 and the “Western Corn Rootworm (50 ppm) rating” value is given as 9.0.

With `CCCCCCOC(C(C)C)C(C)(C)C(=O)Nc1ccc(C(F)(F)F)cc1` (stereo not drawn) [Compound 27, α,α,α-Trifluoro-3-(hexyloxy)-2,2,4-trimethyl-p-valerotoluidide], in assay [1], the “Western Corn Rootworm (1 ppm) rating” value is 0.0, the “Western Corn Rootworm (10 ppm) rating” value stood at 0.0 and the “Western Corn Rootworm (50 ppm) rating” value is listed as 9.0.

For the molecule `C=CCOC(C(C)C)C(C)(C)C(=O)Nc1ccc(C(F)(F)F)cc1` (stereo not drawn) [Compound 22, 3-(Allyloxy)-α,α,α-trifluoro-2,2,4-trimethyl-p-valerotoluidide], in assay [1], the “Western Corn Rootworm (1 ppm) rating” value worked out at 0.0, the “Western Corn Rootworm (10 ppm) rating” value is given as 9.0 and the “Western Corn Rootworm (50 ppm) rating” value came to 9.0.

Regarding `CC(C)C(O)C(C)(C)C(=O)Nc1ccc(Cl)cc1` (stereo not drawn) [Compound 3, 4′-chloro-3-hydroxy-2,2,4-trimethylvaleranilide], in assay [2], the “Southern Corn Rootworm (1 ppm) rating” value stood at 0.0, the “Southern Corn Rootworm (10 ppm) rating” value is 4.0 and the “Southern Corn Rootworm (50 ppm) rating” value worked out at 8.0.

For `CC(C)C(=O)C(C)(C)C(=O)Nc1ccc(Cl)cc1` [Compound 37, 4′-Chloro-2,2,4-trimethyl-3-oxovaleranilide], in assay [2], the “Southern Corn Rootworm (1 ppm) rating” value is given as 0.0, the “Southern Corn Rootworm (10 ppm) rating” value worked out at 9.0 and the “Southern Corn Rootworm (50 ppm) rating” value was found to be 9.0.

As to `CCOC(C(C)C)C(C)(C)C(=O)Nc1ccc(C(F)(F)F)cc1` (stereo not drawn) [Compound 24, 3-Ethoxy-α,α,α-trifluoro-2,2,4-trimethyl-p-valerotoluidide], in assay [1], the “Western Corn Rootworm (1 ppm) rating” value is 0.0, the “Western Corn Rootworm (10 ppm) rating” value is 9.0 and the “Western Corn Rootworm (50 ppm) rating” value worked out at 9.0.

`CC(C)C(=O)C1(C(=O)Nc2ccc(C(F)(F)F)cc2)CC1` [Compound 25, α,α,α-Trifluoro-1-isobutyrylcyclopropanecarboxy-p-toluidide]: in assay [1], the “Western Corn Rootworm (1 ppm) rating” value is given as 0.0, the “Western Corn Rootworm (10 ppm) rating” value worked out at 0.0 and the “Western Corn Rootworm (50 ppm) rating” value is 7.0.

`CC(=O)OC(C(C)C)C(C)(C)C(=O)Nc1ccc(C(F)(F)F)cc1` (stereo not drawn) [Compound 9, α,α,α-Trifluoro-3-hydroxy-2,2,4-trimethyl-p-valerotoluidide, acetate (ester)]: in assay [2], the “Southern Corn Rootworm (1 ppm) rating” value is recorded as 0.0, the “Southern Corn Rootworm (10 ppm) rating” value came out at 8.3 and the “Southern Corn Rootworm (50 ppm) rating” value worked out at 8.3.

Regarding `C#CCOC(C(C)C)C(C)(C)C(=O)Nc1ccc(C(F)(F)F)cc1` (stereo not drawn) [Compound 19, α,α,α-Trifluoro-2,2,4-trimethyl-3-(2-propynyloxy)-p-valerotoluidide], in assay [1], the “Western Corn Rootworm (1 ppm) rating” value is reported as 0.0, the “Western Corn Rootworm (10 ppm) rating” value came out at 9.0 and the “Western Corn Rootworm (50 ppm) rating” value is 9.0.

In the case of `CCOCN(C(=O)C(C)(C)C(=O)C(C)C)c1ccc(C(F)(F)F)cc1` [Compound 15, N-(Ethoxymethyl)-α,α,α-trifluoro-2,2,4-trimethyl-3-oxo-p-valerotoluidide], in assay [1], the “Western Corn Rootworm (1 ppm) rating” value amounted to 8.0, the “Western Corn Rootworm (10 ppm) rating” value is given as 9.0 and the “Western Corn Rootworm (50 ppm) rating” value is 9.0.

Regarding `CC(C)C(OS(C)(=O)=O)C(C)(C)C(=O)Nc1ccc(C(F)(F)F)cc1` (stereo not drawn) [Compound 18, α,α,α-Trifluoro-3-hydroxy-2,2,4-trimethyl-p-valerotoluidide, methanesulfonate (ester)], in assay [1], the “Western Corn Rootworm (1 ppm) rating” value came to 0.0, the “Western Corn Rootworm (10 ppm) rating” value came to 3.0 and the “Western Corn Rootworm (50 ppm) rating” value was 9.0.

In the case of `CC(=O)OC(C(C)C)C(C)(C)C(=O)Nc1ccc(Cl)cc1` (stereo not drawn) [Compound 14, 4′-chloro-3-hydroxy-2,2,4-trimethylvaleranilide, acetate (ester)], in assay [2], the “Southern Corn Rootworm (1 ppm) rating” value is recorded as 9.0, the “Southern Corn Rootworm (10 ppm) rating” value turned out to be 9.0 and the “Southern Corn Rootworm (50 ppm) rating” value turned out to be 9.0.

`CC(C)C(OC(=O)CCl)C(C)(C)C(=O)Nc1ccc(C(F)(F)F)cc1` (stereo not drawn) [Compound 20, 3-Hydroxy-α,α,α-trifluoro-2,2,4-trimethyl-p-valerotoluidide, chloroacetate (ester)]: in assay [1], the “Western Corn Rootworm (1 ppm) rating” value turned out to be 0.0, the “Western Corn Rootworm (10 ppm) rating” value is 5.0 and the “Western Corn Rootworm (50 ppm) rating” value was 9.0.

For `CC(C)(C)OC(C)(C)C(=O)Nc1ccc(C(F)(F)F)cc1` [Compound 34, 2-tert-Butoxy-α,α,α-trifluoro-2-methyl-p-propionotoluidide], in assay [1], the “Western Corn Rootworm (1 ppm) rating” value amounted to 2.0, the “Western Corn Rootworm (10 ppm) rating” value is listed as 9.0 and the “Western Corn Rootworm (50 ppm) rating” value was 9.0.

With `CCOC(C)(C)C(=O)Nc1ccc(C(F)(F)F)cc1` [Compound 35, 2-Ethoxy-α,α,α-trifluoro-2-methyl-p-propionotoluidide], in assay [1], the “Western Corn Rootworm (1 ppm) rating” value is 0.0, the “Western Corn Rootworm (10 ppm) rating” value amounted to 3.0 and the “Western Corn Rootworm (50 ppm) rating” value is 9.0.

In the case of `CC(C)OC(C(C)C)C(C)(C)C(=O)Nc1ccc(C(F)(F)F)cc1` (stereo not drawn) [Compound 23, α,α,α-Trifluoro-3-(isopropoxy)-2,2,4-trimethyl-p-valerotoluidide], in assay [1], the “Western Corn Rootworm (1 ppm) rating” value amounted to 0.0, the “Western Corn Rootworm (10 ppm) rating” value is recorded as 9.0 and the “Western Corn Rootworm (50 ppm) rating” value was determined as 9.0.

With `CC(C)C(OC=O)C(C)(C)C(=O)Nc1ccc(C(F)(F)F)cc1` (stereo not drawn) [Compound 33, α,α,α-Trifluoro-3-hydroxy-2,2,4-trimethyl-p-valerotoiuidide, formate (ester)], in assay [1], the “Western Corn Rootworm (1 ppm) rating” value is recorded as 0.0, the “Western Corn Rootworm (10 ppm) rating” value is given as 5.0 and the “Western Corn Rootworm (50 ppm) rating” value stood at 9.0.

`CCOCOC(C(C)C)C(C)(C)C(=O)Nc1ccc(C(F)(F)F)cc1` (stereo not drawn) [Compound 17, 3-(Ethoxymethoxy)-α,α,α-trifluoro-2,2,4-trimethyl-p-valerotoluidide]: in assay [1], the “Western Corn Rootworm (1 ppm) rating” value was 1.0, the “Western Corn Rootworm (10 ppm) rating” value is given as 9.0 and the “Western Corn Rootworm (50 ppm) rating” value is listed as 9.0.

Regarding `CC(C)C(OC1CCCC1)C(C)(C)C(=O)Nc1ccc(C(F)(F)F)cc1` (stereo not drawn) [Compound 26, 3-(Cyclopentyloxy)-α,α,α-trifluoro-2,2,4-trimethyl-p-valerotoluidide], in assay [1], the “Western Corn Rootworm (1 ppm) rating” value worked out at 0.0, the “Western Corn Rootworm (10 ppm) rating” value was found to be 0.0 and the “Western Corn Rootworm (50 ppm) rating” value is on record as 8.0.

As to `CC(C)C(=O)C(C)(Cl)C(=O)Nc1ccc(C(F)(F)F)cc1` (stereo not drawn) [Compound 31], in assay [1], the “Western Corn Rootworm (1 ppm) rating” value worked out at 0.0, the “Western Corn Rootworm (10 ppm) rating” value worked out at 0.0 and the “Western Corn Rootworm (50 ppm) rating” value turned out to be 4.0.

As for `COC(C(C)C)C(C)(C)C(=O)Nc1ccc(Cl)cc1` (stereo not drawn) [Compound 28, 4′-Chloro-3-methoxy-2,2,4-trimethylvaleranilide], in assay [1], the “Western Corn Rootworm (1 ppm) rating” value is listed as 0.0, the “Western Corn Rootworm (10 ppm) rating” value is recorded as 5.0 and the “Western Corn Rootworm (50 ppm) rating” value is 9.0.

`CC(C)(C)C(=O)C(C)(C)C(=O)Nc1ccc(C(F)(F)F)cc1` [Compound 21, α,α,α-Trifluoro-2,2,4,4-tetramethyl-3-oxo-p-valerotoluidide]: in assay [1], the “Western Corn Rootworm (1 ppm) rating” value turned out to be 0.0, the “Western Corn Rootworm (10 ppm) rating” value is reported as 9.0 and the “Western Corn Rootworm (50 ppm) rating” value is given as 9.0.
